A word on the Kd: it is the equilibrium constant for the complex coming apart.

In the assay the target is T1, α-synuclein (Homo sapiens, UniProt P37840).
T1 construct: gene SNCA; preformed fibrils of recombinant wild-type α-synuclein
The assay is described as follows: fibril ultracentrifugation depletion with LC-MS of unbound compound in the supernatant, dose-response fit (second estimate […] by varying fibril concentration). The class given is binding.

In the case of `O=C1NN(c2ccccc2)C(=O)C1=Cc1coc2ccc(Cl)cc2c1=O` [69.2, compound 69.2], the Kd is 6 ± 1 µM.

The values above are taken from PMC10493395, “Optimization of a small molecule inhibitor of secondary nucleation in α-synuclein aggregation” (Frontiers in Molecular Biosciences, 2023).
